In patent US12258327B2, “5-membered heteroaryl-containing aminopyridine compounds as EGFR inhibitors” (YUHAN CORPORATION, priority 2021, dated 2025):
Like-named read-outs stand apart in the source and are kept apart here.

Experiments:
[1] = molecular target: EGFR L858R/T790M/C797S (Homo sapiens, UniProt P00533, C797S/L858R/T790M); assay: Biochemical EGFR kinase assay (Lance Ultra TR-FRET), triple mutant L858R/T790M/C797S
Method in brief: (§1)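 Kinase activity is measured by TR-FRET phosphopeptide detection. Compounds span 0.003 μM to 10 μM; the 1 h reaction at room temperature is quenched with EDTA, then labelled antibody (2 nM) is incubated 60 min before reading.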

[2] = molecular target: EGFR wildtype (WT) (Homo sapiens, UniProt P00533); assay: Biochemical EGFR kinase assay (Lance Ultra TR-FRET), wildtype
Sequence of EGFR wildtype (WT) (P00533 25-1210): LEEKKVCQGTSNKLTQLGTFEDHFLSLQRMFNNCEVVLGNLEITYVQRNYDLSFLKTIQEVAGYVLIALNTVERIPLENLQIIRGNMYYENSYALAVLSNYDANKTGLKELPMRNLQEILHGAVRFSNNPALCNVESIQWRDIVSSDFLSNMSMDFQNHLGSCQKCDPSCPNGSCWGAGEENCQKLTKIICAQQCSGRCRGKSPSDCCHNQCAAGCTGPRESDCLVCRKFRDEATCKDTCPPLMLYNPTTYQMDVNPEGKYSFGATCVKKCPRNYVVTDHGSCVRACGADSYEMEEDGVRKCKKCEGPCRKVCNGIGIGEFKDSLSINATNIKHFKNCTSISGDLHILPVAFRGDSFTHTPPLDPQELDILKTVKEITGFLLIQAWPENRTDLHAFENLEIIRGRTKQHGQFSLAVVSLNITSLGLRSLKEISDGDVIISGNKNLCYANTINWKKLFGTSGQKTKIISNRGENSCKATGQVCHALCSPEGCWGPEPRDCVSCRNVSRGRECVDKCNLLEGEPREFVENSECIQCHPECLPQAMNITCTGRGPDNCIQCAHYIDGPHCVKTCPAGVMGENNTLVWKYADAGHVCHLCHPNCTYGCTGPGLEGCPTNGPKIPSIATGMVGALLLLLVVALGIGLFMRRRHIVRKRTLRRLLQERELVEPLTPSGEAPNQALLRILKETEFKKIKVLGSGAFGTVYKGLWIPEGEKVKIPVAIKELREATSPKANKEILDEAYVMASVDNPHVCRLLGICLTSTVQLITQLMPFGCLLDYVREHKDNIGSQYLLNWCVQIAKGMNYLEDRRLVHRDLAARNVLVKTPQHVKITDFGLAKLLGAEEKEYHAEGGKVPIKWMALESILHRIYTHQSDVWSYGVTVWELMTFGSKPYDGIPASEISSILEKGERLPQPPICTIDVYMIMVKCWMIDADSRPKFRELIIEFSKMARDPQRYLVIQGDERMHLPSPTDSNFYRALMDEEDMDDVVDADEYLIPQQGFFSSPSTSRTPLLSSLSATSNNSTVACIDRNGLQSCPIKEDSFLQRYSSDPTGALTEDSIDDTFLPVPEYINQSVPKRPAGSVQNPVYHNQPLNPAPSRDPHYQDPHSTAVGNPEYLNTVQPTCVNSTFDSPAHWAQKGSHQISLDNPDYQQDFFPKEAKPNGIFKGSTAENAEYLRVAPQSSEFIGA
Method in brief: as §1

[3] = molecular target: EGFR L858R/C797S (Homo sapiens, UniProt P00533, C797S/L858R); assay: Biochemical EGFR kinase assay (Lance Ultra TR-FRET), double mutant L858R/C797S
Sequence of EGFR L858R/C797S (P00533 25-1210 C797S/L858R): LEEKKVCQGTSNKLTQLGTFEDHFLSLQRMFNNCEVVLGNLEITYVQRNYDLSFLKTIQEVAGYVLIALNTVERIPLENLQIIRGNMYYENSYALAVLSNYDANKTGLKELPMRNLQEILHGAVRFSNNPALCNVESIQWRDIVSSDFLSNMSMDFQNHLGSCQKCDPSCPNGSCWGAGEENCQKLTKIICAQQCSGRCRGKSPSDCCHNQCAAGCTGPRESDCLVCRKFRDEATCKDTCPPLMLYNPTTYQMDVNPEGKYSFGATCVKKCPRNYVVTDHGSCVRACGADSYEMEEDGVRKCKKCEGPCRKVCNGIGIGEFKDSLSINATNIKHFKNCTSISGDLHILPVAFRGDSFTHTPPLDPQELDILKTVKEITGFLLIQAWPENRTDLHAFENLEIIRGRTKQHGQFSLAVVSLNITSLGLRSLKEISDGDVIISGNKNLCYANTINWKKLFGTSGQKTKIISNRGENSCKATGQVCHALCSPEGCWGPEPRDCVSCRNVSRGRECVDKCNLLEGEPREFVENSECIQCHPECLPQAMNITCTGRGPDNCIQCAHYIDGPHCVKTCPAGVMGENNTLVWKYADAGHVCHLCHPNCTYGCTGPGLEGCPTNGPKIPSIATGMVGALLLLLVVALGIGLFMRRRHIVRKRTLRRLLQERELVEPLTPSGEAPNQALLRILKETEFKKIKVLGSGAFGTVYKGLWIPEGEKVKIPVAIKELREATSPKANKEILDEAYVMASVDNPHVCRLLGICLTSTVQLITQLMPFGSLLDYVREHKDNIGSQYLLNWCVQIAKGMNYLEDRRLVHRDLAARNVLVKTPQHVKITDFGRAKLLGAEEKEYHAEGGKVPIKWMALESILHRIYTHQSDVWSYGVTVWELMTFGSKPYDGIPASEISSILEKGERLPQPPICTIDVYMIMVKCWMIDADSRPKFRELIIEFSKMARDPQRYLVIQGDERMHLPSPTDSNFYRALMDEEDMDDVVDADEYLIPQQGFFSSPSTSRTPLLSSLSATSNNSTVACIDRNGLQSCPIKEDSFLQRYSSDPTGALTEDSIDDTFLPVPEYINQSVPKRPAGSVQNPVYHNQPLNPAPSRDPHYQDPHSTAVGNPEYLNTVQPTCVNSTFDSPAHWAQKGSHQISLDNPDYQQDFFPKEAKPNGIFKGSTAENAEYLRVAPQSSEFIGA
Method in brief: as §1

[4] = molecular target: EGFR del19/T790M/C797S (Homo sapiens, UniProt P00533, C797S/DEL746-750/T790M); assay: Biochemical EGFR kinase assay (Lance Ultra TR-FRET), triple mutant del19/T790M/C797S
Method in brief: as §1

[5] = molecular target: EGFR del19/C797S (Homo sapiens, UniProt P00533, C797S/DEL746-750); assay: Biochemical EGFR kinase assay (Lance Ultra TR-FRET), double mutant del19/C797S
Sequence of EGFR del19/C797S (P00533 with tags, fused parts or gaps DEL746-750/C797S): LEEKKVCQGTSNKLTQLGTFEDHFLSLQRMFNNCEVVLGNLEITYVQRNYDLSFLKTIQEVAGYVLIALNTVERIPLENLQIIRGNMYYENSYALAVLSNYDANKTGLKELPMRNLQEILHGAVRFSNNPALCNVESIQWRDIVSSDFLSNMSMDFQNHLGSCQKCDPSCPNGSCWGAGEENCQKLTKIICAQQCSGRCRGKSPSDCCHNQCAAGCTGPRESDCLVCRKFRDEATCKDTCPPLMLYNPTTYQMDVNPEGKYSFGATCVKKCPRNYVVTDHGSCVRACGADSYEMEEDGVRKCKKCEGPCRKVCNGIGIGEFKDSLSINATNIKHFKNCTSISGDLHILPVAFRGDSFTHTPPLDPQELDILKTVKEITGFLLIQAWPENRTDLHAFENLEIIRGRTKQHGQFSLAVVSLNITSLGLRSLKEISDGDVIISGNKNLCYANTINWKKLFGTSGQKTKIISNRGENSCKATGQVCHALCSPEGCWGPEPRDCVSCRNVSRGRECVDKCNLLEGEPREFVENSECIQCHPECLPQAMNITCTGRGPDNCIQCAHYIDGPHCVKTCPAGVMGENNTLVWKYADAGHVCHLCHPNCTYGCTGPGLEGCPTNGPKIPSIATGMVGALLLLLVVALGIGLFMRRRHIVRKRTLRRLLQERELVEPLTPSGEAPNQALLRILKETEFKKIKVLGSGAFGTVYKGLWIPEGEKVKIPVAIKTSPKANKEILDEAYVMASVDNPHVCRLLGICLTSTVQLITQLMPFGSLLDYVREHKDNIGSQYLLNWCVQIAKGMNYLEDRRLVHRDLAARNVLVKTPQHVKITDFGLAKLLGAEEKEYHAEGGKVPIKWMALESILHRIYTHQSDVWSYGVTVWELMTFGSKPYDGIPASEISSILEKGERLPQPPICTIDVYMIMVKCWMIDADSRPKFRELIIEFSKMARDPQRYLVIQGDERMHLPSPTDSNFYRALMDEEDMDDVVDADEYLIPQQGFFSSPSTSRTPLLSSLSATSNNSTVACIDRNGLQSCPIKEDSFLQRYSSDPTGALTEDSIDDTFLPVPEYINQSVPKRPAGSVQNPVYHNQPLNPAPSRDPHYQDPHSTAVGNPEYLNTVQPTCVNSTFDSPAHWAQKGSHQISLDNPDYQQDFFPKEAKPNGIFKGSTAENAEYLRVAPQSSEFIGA
Method in brief: as §1

[6] = Km ATP, read-out: IC50 L858R/T790M/C797S, Km ATP
[7] = Km ATP, read-out: IC50 WT, Km ATP
[8] = Km ATP, read-out: IC50 L858R/C797S, Km ATP
[9] = Km ATP, read-out: IC50 del19/T790M/C797S, Km ATP
[10] = Km ATP, read-out: IC50 del19/C797S, Km ATP
[11] = Km ATP, read-out: IC50 L858R/T790M/C797S (nM) Km ATP
[12] = IC50 WT (nM) 100 μM ATP, 100 μM ATP
[13] = Km ATP, read-out: IC50 WT (nM) Km ATP
[14] = IC50 L858R/C797S (nM) 100 μM ATP, 100 μM ATP
[15] = Km ATP, read-out: IC50 L858R/C797S (nM) Km ATP
[16] = Km ATP, read-out: IC50 del19/T790M/C797S (nM) Km ATP
[17] = IC50 del19/C797S (nM) 100 μM ATP, 100 μM ATP
[18] = Km ATP, read-out: IC50 del19/C797S (nM) Km ATP
[19] = IC50 L858R/T790M/C797S (nM) 100 μM ATP, 100 μM ATP
[20] = IC50 del19/T790M/C797S (nM) 100 μM ATP, 100 μM ATP

Sequence of EGFR L858R/T790M/C797S (P00533 25-1210 T790M/C797S/L858R): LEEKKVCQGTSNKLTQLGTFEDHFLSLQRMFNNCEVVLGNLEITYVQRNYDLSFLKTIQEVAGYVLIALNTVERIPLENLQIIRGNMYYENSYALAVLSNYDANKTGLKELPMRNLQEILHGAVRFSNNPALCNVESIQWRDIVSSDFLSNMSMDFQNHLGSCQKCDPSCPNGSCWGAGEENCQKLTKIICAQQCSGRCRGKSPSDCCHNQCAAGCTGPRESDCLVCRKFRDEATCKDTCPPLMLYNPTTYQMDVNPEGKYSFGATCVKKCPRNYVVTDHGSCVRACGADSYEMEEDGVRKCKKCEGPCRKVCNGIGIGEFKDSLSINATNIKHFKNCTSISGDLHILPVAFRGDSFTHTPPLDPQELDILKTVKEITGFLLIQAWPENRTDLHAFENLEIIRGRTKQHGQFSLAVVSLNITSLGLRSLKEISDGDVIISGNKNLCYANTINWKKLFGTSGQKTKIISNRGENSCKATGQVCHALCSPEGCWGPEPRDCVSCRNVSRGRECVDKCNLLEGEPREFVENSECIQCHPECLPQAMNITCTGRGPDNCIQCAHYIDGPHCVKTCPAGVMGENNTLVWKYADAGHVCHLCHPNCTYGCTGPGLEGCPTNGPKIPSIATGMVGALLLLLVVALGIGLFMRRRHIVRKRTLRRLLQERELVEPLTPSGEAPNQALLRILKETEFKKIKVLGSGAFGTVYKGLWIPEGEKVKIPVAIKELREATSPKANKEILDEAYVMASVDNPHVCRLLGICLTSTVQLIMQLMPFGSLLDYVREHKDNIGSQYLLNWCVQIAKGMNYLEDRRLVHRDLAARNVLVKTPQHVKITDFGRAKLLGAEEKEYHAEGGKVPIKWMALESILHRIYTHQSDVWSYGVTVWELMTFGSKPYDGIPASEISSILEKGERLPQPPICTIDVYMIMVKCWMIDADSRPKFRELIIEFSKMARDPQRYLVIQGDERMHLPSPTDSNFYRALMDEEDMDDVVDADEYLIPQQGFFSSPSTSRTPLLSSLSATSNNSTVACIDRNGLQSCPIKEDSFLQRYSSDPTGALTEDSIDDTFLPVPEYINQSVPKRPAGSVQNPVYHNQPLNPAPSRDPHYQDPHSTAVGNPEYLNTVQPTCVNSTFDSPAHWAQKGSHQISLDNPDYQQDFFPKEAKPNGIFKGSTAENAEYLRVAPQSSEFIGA

| IC50 ([1]; IC50 L858R/T790M/C797S, 100 μM ATP) [nM] | IC50 [1, 6] [nM] | IC50 ([2]; IC50 WT, 100 μM ATP) [nM] | IC50 [2, 7] [nM] | IC50 ([3]; IC50 L858R/C797S, 100 μM ATP) [nM] | IC50 [3, 8] [nM] | IC50 ([4]; IC50 del19/T790M/C797S, 100 μM ATP) [nM] | IC50 [4, 9] [nM] | IC50 ([5]; IC50 del19/C797S, 100 μM ATP) [nM] | IC50 [5, 10] [nM] | IC50 [1, 11] [nM] | IC50 [2, 12] [nM] | IC50 [2, 13] [nM] | IC50 [3, 14] [nM] | IC50 [3, 15] [nM] | IC50 [4, 16] [nM] | IC50 [5, 17] [nM] | IC50 [5, 18] [nM] | IC50 [1, 19] [nM] | IC50 [4, 20] [nM] | Compound |
| --- | --- | --- | --- | --- | --- | --- | --- | --- | --- | --- | --- | --- | --- | --- | --- | --- | --- | --- | --- | --- |
| 0.9 | 0.1 | > 10000 | 144 | 126 | 11 | 0.4 | 0.2 | 8 | 6 |  |  |  |  |  |  |  |  |  |  | C[C@]1(O)CC[C@@H](Nc2cc(Nc3ccnc(-c4cnn(S(=O)(=O)C5CC5)c4)n3)ncc2-n2cccn2)CC1 [Example 376, (1s,4s)-4-((2-((2-(1-(Cyclopropylsulfonyl)-1H-pyrazol-4-yl)pyrimidin-4-yl)amino)-5-(1H-pyrazol-1-yl)pyridin-4-yl)amino)-1-methylcyclohexan-1-ol] |
|  | 2.8 |  | 235 |  | 44.3 |  | 2.7 |  | 198 |  |  |  |  |  |  |  |  |  |  | C[C@]1(O)CC[C@@H](Nc2cc(Nc3ccnc(N4CCC[C@H](O)C4)n3)ncc2-c2ccn(C(F)F)n2)CC1 [Example 351, (S)-1-(4-((5-(1-(Difluoromethyl)-1H-pyrazol-3-yl)-4-(((1s,4R)-4-hydroxy-4-methylcyclohexyl)amino)pyridin-2-yl)amino)pyrimidin-2-yl)piperidin-3-ol] |
|  |  |  |  |  |  |  |  |  |  | 0.2 | 3640 | 44.2 | 4.1 | 0.4 | 0.4 | 0.4 | 0.5 | 0.4 | 0.4 | CCS(=O)(=O)n1cc(-c2nccc(Nc3cc(N[C@H]4CC[C@@](C)(O)CC4)c(-c4ccn(C(F)F)n4)cn3)n2)cn1 [Example 308, (1s,4s)-4-((5-(1-(Difluoromethyl)-1H-pyrazol-3-yl)-2-((2-(1-(ethylsulfonyl)-1H-pyrazol-4-yl)pyrimidin-4-yl)amino)pyridin-4-yl)amino)-1-methylcyclohexan-1-ol] |
|  | 2.6 |  | 142 |  | 6.8 |  | 2.3 |  | 11.9 |  |  |  |  |  |  |  |  |  |  | Cn1nc(-c2cnc(Nc3ccnc(-c4cnn(CC(F)F)c4)n3)cc2N[C@H]2CC[C@@](C)(O)CC2)cc1C(F)(F)F [Example 331, (1s,4s)-4-((2-((2-(1-(2,2-Difluoroethyl)-1H-pyrazol-4-yl)pyrimidin-4-yl)amino)-5-(1-methyl-5-(trifluoromethyl)-1H-pyrazol-3-yl)pyridin-4-yl)amino)-1-methylcyclohexan-1-ol] |

Continued, molecule first:

| Compound | IC50 ([1]; IC50 L858R/T790M/C797S, 100 μM ATP) [nM] | IC50 [1, 6] [nM] | IC50 ([2]; IC50 WT, 100 μM ATP) [nM] | IC50 [2, 7] [nM] | IC50 ([3]; IC50 L858R/C797S, 100 μM ATP) [nM] | IC50 [3, 8] [nM] | IC50 ([4]; IC50 del19/T790M/C797S, 100 μM ATP) [nM] | IC50 [4, 9] [nM] | IC50 ([5]; IC50 del19/C797S, 100 μM ATP) [nM] | IC50 [5, 10] [nM] | IC50 [1, 11] [nM] | IC50 [2, 12] [nM] | IC50 [2, 13] [nM] | IC50 [3, 14] [nM] | IC50 [3, 15] [nM] | IC50 [4, 16] [nM] | IC50 [5, 17] [nM] | IC50 [5, 18] [nM] | IC50 [1, 19] [nM] | IC50 [4, 20] [nM] |
| --- | --- | --- | --- | --- | --- | --- | --- | --- | --- | --- | --- | --- | --- | --- | --- | --- | --- | --- | --- | --- |
| O=S(=O)(C1CC1)n1cc(-c2nccc(Nc3cc(N[C@H]4CC[C@](O)(CO)CC4)c(-c4csc(N5CCOCC5)n4)cn3)n2)cn1 [Example 125, (1s,4s)-4-((2-((2-(1-(Cyclopropylsulfonyl)-1H-pyrazol-4-yl)pyrimidin-4-yl)amino)-5-(2-morpholinothiazol-4-yl)pyridin-4-yl)amino)-1-(hydroxymethyl)cyclohexan-1-ol] |  |  |  |  |  |  |  |  |  |  | 0.4 | > 10000 | 144 | 218 | 10.8 | 0.7 | 18.5 | 20.4 |  |  |
| COc1cc(-c2nccc(Nc3cc(N[C@H]4CC[C@@](C)(O)CC4)c(-c4ccn(C(F)F)n4)cn3)n2)ccn1 [Example 169, (1s,4s)-4-((5-(1-(Difluoromethyl)-1H-pyrazol-3-yl)-2-((2-(2-methoxypyridin-4-yl)pyrimidin-4-yl)amino)pyridin-4-yl)amino)-1-methylcyclohexan-1-ol] |  |  |  |  |  |  |  |  |  |  | 15.5 |  | 325 |  | 43.4 | 20.1 |  | 110 |  |  |
| Cn1nc(-c2cnc(Nc3ccnc(-c4cnn(S(=O)(=O)C5CC5)c4)n3)cc2NC[C@H]2CC[C@@H](O)C2)cc1C(F)(F)F [Example 261, (1R,3S)-3-(((2-((2-(1-(Cyclopropylsulfonyl)-1H-pyrazol-4-yl)pyrimidin-4-yl)amino)-5-(1-methyl-5-(trifluoromethyl)-1H-pyrazol-3-yl)pyridin-4-yl)amino)methyl)cyclopentan-1-ol] |  |  |  |  |  |  |  |  |  |  | 0.8 | > 10000 | 6.4 | 22.7 | 5.6 | 0.1 | 77.9 | 5.8 | 1.4 | 1.2 |
| CN(C)C(=O)C[C@H]1CC[C@@H](Nc2cc(Nc3ccnc(-c4cnn(S(=O)(=O)C5CC5)c4)n3)ncc2-c2ccn(C(F)F)n2)CC1 [Example 205, 2-((1s,4s)-4-((2-((2-(1-(Cyclopropylsulfonyl)-1H-pyrazol-4-yl)pyrimidin-4-yl)amino)-5-(1-(difluoromethyl)-1H-pyrazol-3-yl)pyridin-4-yl)amino)cyclohexyl)-N,N-dimethylacetamide] |  |  |  |  |  |  |  |  |  |  | 0.2 | 3960 | 4.4 | 10.1 | 0.4 | 0.3 | 1 | 0.6 | 0.4 | 0.6 |
| Cc1ccn(-c2cnc(Nc3ccnc(-c4cnn(S(=O)(=O)C5CC5)c4)n3)cc2N[C@H]2CC[C@@](C)(O)CC2)n1 [Example 168, (1s,4s)-4-((2-((2-(1-(Cyclopropylsulfonyl)-1H-pyrazol-4-yl)pyrimidin-4-yl)amino)-5-(3-methyl-1H-pyrazol-1-yl)pyridin-4-yl)amino)-1-methylcyclohexan-1-ol] |  |  |  |  |  |  |  |  |  |  | 0.1 |  | 26.9 |  | 3 | 0.2 |  | 6.5 |  |  |
| O=S(=O)(C1CC1)n1cc(-c2nccc(Nc3cc(N[C@H]4CC[C@@H](CCO)CC4)c(-c4ccn(CC(F)(F)F)n4)cn3)n2)cn1 [Example 269, 2-((1s,4s)-4-((2-((2-(1-(Cyclopropylsulfonyl)-1H-pyrazol-4-yl)pyrimidin-4-yl)amino)-5-(1-(2,2,2-trifluoroethyl)-1H-pyrazol-3-yl)pyridin-4-yl)amino)cyclohexyl)ethan-1-ol] |  |  |  |  |  |  |  |  |  |  | 0.5 | 5750 | 7.1 | 4 | 1.4 | 2.8 | 29.9 | 1.3 | 1.4 | 1.3 |
| CN(C)CCNC1CCC(Nc2cc(Nc3ccnc(-c4cnn(S(=O)(=O)C5CC5)c4)n3)ncc2-c2csc(C(F)(F)F)n2)CC1 (stereo not drawn) [Example 98, N^2-(2-(1-(Cyclopropylsulfonyl)-1H-pyrazol-4-yl)pyrimidin-4-yl)-N^4-(4-((2-(dimethylamino)ethyl)amino)cyclohexyl)-5-(2-(trifluoromethyl)thiazol-4-yl)pyridine-2,4-diamine] |  |  |  |  |  |  |  |  |  |  |  | 1410 |  | 7.7 |  |  | 1.9 |  | 2.7 | 0.7 |
| Cn1nc(-c2cnc(Nc3ccnc(-c4cnn(S(=O)(=O)C5CC5)c4)n3)cc2N[C@H]2CC[C@@H](CCO)CC2)cc1C(F)(F)F [Example 262, 2-((1s,4s)-4-((2-((2-(1-(Cyclopropylsulfonyl)-1H-pyrazol-4-yl)pyrimidin-4-yl)amino)-5-(1-methyl-5-(trifluoromethyl)-1H-pyrazol-3-yl)pyridin-4-yl)amino)cyclohexyl)ethan-1-ol] |  |  |  |  |  |  |  |  |  |  | 2.1 | 1880 | 8.4 | 5.3 | 5.7 | 0.1 | 33.4 | 4.5 | 7.3 | 6.6 |
